From patent US7803757B2, “Peptides based on the sequence of human lactoferrin and their use” (PharmaSurgics in Sweden AB, priority 1998, dated 2010)
Peptide text beside a SMILES is read from it. * marks the point of attachment. Acm = CC(=O)NC*

Columns and labels:
Format in all cases: cell-based
Candida albicans = test: fungicidal activity against Candida albicans strains (Example 4)
Method: In this example the fungicidal activity of the peptides according to the invention was tested and compared to the fungicidal activity of human lactoferrin. Different concentrations of hLF, peptide 3 and peptide 4 were incubated with different strains of Candida albicans and Candida krusei during 1-2 hours at 37° C. in 0.05 mM KCl at pH 7.0 at two different occasions—experiment I and II, respectively. After incubation samples were taken for plating on Saboroud plates.

multiresistant S. aureus = test: bactericidal activity, multiresistant S. aureus (Example 18); conditions: multiresistant S. aureus 5.0×10^5 per ml
Method: In this example the bactericidal activity of two of the peptides according to the invention was studied in a test with a multiresistant S. aureus. A bacterial solution with a concentration of 5.0×10^5 S. aureus bacterial per ml was used. The concentration of each peptide needed to kill 99% of the bacteria (MMC99%) was determined after 2 hours and after 24 hours of incubation at 37° C.

E. coli O14 [1] = test: bactericidal and growth inhibitory activity, E. coli O14 (Example 9)
Method: E. coli O14 was incubated as described above in the presence of the peptides during 2 hours. The bactericidal activity was measured in the same way as described above.
The inhibition of growth was measured spectrophotometrically after incubation during 20 hours.

E. coli O6K5 = test: bactericidal activity, incubation with E. coli O6K5 (Example 3, exp. II); conditions: Exp. II: 100% killing, E. coli O6K5, 1/100 BHI, 2 hours
Method: (§1) Human lactoferrin (hLF), peptide 3, and peptide 4, respectively, were incubated with two different strains of E. coli, E. coli O14 (experiment I) and O6K5 (experiment II), in diluted growth medium ( 1/100 BHI—brain heart infusion) for 2 hours. The peptides were also incubated with E. coli O14 in 0.05 mM KCl (pH 7) without any growth medium (experiment III). Different concentrations of the peptides were tested.
(§2) After the incubation, samples were taken for bacterial plating. Serial dilutions of five- and fourfold steps were used in experiments I and II, respectively, and of twofold steps in experiment III.
(§3) The concentrations of the different peptides required for killing 100% (experiments I and II) or 90% (experiment III) of the bacteria are given in table 2.

C. glabrata = test: fungicidal activity MMC99%, C. glabrata (Example 27); conditions: BHI diluted 1/100 (Table 23)
Method: In the examples, the minimal microbicidal concentrations (MMC) and minimal inhibitory concentrations (MIC) were determined as follows, unless otherwise specified in the examples. Bacterial or fungal strains were cultured in BHI medium over night at 37° C. A volume of the culture was transferred to a new tube with BHI and incubated for two more hours. Thereafter the cells were spun down and the pellet was suspended in BHI medium diluted 1/100 (1% BHI). The concentration of bacterial or fungal cells was spectrophotometrically determined at 650 nm. The microbial concentrations were also determined by viable counts. Peptides serially diluted in 1% BHI by twofold or tenfold steps were added in triplicate to the wells of a microtiterplate (200 μl per well). The bacterial or fungal cell solutions were added in 10 μl volumes to give a final concentration of approximately 1-5×10^5 cells per ml in the well. The microplate was incubated at 37° C. in a humid chamber for two hours. Thereafter 5 μl was taken from each well and added as a drop onto a blood agar plate and incubated over night at 37° C. The microplate was incubated for another 20 hours at 37° C. and thereafter analysed spectrophotometrically at 650 nm in a microplate reader (Emax, Molecular Devices, USA). The concentration of peptide causing a 99% reduction of the inoculum after 2 hours of incubation was defined as the MMC99%. The MIC value was defined as the concentration giving no increase in the absorbance value above the background level after 20 hours of incubation.
In this example the fungicidal activity of three of the peptides according to the invention was studied, and tested against three different fungi. The fungi were incubated in BHI medium diluted 1/100. The concentration of each peptide needed to kill 99% of the fungi (MMC99%) was determined.

E. coli O14 [2] = test: bactericidal activity against E. coli O14, comparison with EP-A-0 629 347 peptides (Example 7); conditions: E. coli O14, II: serial dilutions of twofold steps
Method: In this example an in vitro test was performed to compare the bactericidal and fungicidal activity of the peptides according to the invention with peptides described in EP-A-0 629 347. The peptide according to the invention used was peptide 4, and the peptides according to EP-A-0 629 347 called Morinaga 10, Morinaga 11, Morinaga 12, and Morinaga 13.
The peptides were incubated with E. coli O14 and Candida albicans. Two concentrations of C. albicans yeast cells were tested, 5·10^6 and 5·10^3 per ml. Different concentrations of the peptides were tested.
After the incubation, samples were taken for bacterial plating. Serial dilutions of tenfold steps were used in the experiments marked with I in table 5 and of twofold steps in the experiments marked with II.

E. coli O14 [3] = test: bactericidal activity, incubation with E. coli O14 (Example 3, exp. I and III)
Method: as §1, §2, §3

[4] = system: Candida albicans ATCC 64549; test: fungicidal and growth inhibitory activity, Candida albicans ATCC 64549 (Example 8)
Method: Candida albicans ATCC 64549 (1·10^5/ml) was incubated in the presence of the peptides during 2 hours at 37° C. in diluted growth medium (BHI, twofold serial dilutions starting with 50 μg/ml). The fungicidal activity was measured by culturing 5 μl from each incubation well on Saboroud agar plates.
The inhibition of growth was measured spectrophotometrically after 20 hours of incubation.

CC[C@H](C)[C@H](NC(=O)[C@H](CSCNC(C)=O)NC(=O)[C@H](CO)NC(=O)[C@@H](NC(=O)[C@@H]1CCCN1C(=O)[C@@H]1CCCN1C(=O)CNC(=O)[C@H](CCCNC(=N)N)NC(=O)[C@@H](NC(=O)[C@H](CCCCN)NC(=O)[C@H](CCCNC(=N)N)NC(=O)[C@H](CCSC)NC(=O)[C@H](CC(N)=O)NC(=O)[C@H](CCCNC(=N)N)NC(=O)[C@H](CCC(N)=O)NC(=O)[C@H](Cc1c[nH]c2ccccc12)NC(=O)[C@H](CCC(N)=O)NC(=O)[C@H](Cc1ccccc1)NC(=O)[C@H](CSCNC(C)=O)NC(=O)[C@H](CCCCN)NC(=O)[C@@H](NC(C)=O)[C@@H](C)O)C(C)C)C(C)C)C(=O)N[C@@H](CCCCN)C(=O)N[C@@H](CCCNC(=N)N)C(N)=O [Peptide 4] (Ac-TKC(Acm)FQWQRNMRKVRGPPVSC(Acm)IKR-NH2)
ratio hLF/pep. (concentration for 99% killing) (Candida albicans; Exp. I, C. albicans ATCC 64549): >40 | Concentration of agent for 99% killing (Candida albicans; Exp. I, C. albicans ATCC 64549, 0.05 mM KCl pH 7.0, 1-2 hours 37° C.): 1.25 µg/mL | ratio hLF/pep. (concentration for 99% killing) (Candida albicans; Exp. I, C. albicans CCUG 90028): >40 | Concentration of agent for 99% killing (Candida albicans; Exp. I, C. albicans CCUG 90028, 0.05 mM KCl pH 7.0): 1.25 µg/mL | ratio hLF/pep. (concentration for 99% killing) (Candida albicans; Exp. II, C. albicans ATCC 64549): >133 | Concentration of agent for 99% killing (Candida albicans; Exp. II, C. albicans ATCC 64549, 0.05 mM KCl pH 7.0): 1.5 µg/mL | ratio hLF/pep. (concentration for 99% killing) (Candida albicans; Exp. II, C. albicans CCUG 599): >133 | Concentration of agent for 99% killing (Candida albicans; Exp. II, C. albicans CCUG 599, 0.05 mM KCl pH 7.0): 1.5 µg/mL | ratio hLF/pep. (concentration for 99% killing) (Candida albicans; Exp. II, C. albicans CCUG 1759): >133 | Concentration of agent for 99% killing (Candida albicans; Exp. II, C. albicans CCUG 1759, 0.05 mM KCl pH 7.0): 1.5 µg/mL | MMC99% (multiresistant S. aureus; 2 hours at 37° C.): 5.0 µg/mL | MMC99% (multiresistant S. aureus; 24 hours at 37° C.): ≦0.32 μg/ml | Concentration of agent for 100% killing (E. coli O14 [1]; E. coli O14, 2 hours): 12.5 µg/mL | Concentration of agent for inhibition of growth (E. coli O14 [1]; E. coli O14, spectrophotometrically after 20 hours): 3.1 µg/mL | Concentration of agent for 100%/90% killing (E. coli O6K5): ≦7.8 μg/ml | MMC99% (C. glabrata): >50 | Concentration of agent for 100% killing (E. coli O14 [2]): 12 µg/mL | Concentration of agent for 100%/90% killing (E. coli O14 [3]; Exp. I: 100% killing, E. coli O14, 1/100 BHI, 2 hours): 4.4 µg/mL | Concentration of agent for 100%/90% killing (E. coli O14 [3]; Exp. III: 90% killing, E. coli O14, 0.05 mM KCl (pH 7) without growth medium): 3.2 µg/mL | Concentration of agent for 100% killing ([4]; C. albicans ATCC 64549 1·10^5/ml, 2 hours 37° C., diluted BHI): 6.2 µg/mL | Concentration of agent for inhibition of growth ([4]; C. albicans ATCC 64549, spectrophotometrically after 20 hours): 6.2 µg/mL
